The text below walks through data of US4820867A, “Phenoxypropoxy halophenylacetic acids as leukotriene antagonists” (Merck Frosst Canada, Inc., priority 1986, dated 1989).

For the assay, the system named is leukotriene D4 induced bronchoconstriction. The assay can be described thus: inhibition of leukotriene D4 induced bronchoconstriction in anaesthetized guinea pigs (modified Konzett-Rossler). The format is in vivo, guinea pig. To be noted: for ED50: Cavia porcellus, 10 min, directly into the duodenum, dose producing 50% inhibition when given 10 minutes before LTD4, read-out: ED50 (median effective dose), inhibition of LTD4 induced bronchoconstriction; for % Inhibition After 30 Min.: inhibition of LTD4 induced bronchoconstriction, intraduodenal, 30 min after antagonist administration. Also on record: % Inhibition After 30 Min.: concentration or dose not given beside the values. As to the method: The antagonist activity of the compounds of the present invention was determined by measuring their ability to inhibit leukotriene D4 induced bronchoconstriction in anaesthetized guinea pigs (modified Konzett-Rossler). When administrated directly into the duodenum (oral activity) they are active at 2.5-5 mg/kg. Oral activity is defined as the dose producing 50% inhibition when given 10 minutes before LTD4. Percent inhibition was determined at 10 minutes and also at 30 and 50 minutes after antagonist administration. The time interval between LTD4 administration was kept constant at 20 minutes in all experiments.
Table I is a comparison between three known leukotriene antagonists (entries 1, 2 and 3, see: G.B. Pat. No. 2,058,785, supra) and several compounds of the present invention (4-9).

In general, ED50 refers to the midpoint of the dose-response relation. With `CCCc1c(OCCCOc2ccc(CC(=O)O)cc2Br)ccc(C(C)=O)c1O` [Entry 9, 4-(3-(4-Acetyl-3-hydroxy-2-propylphenoxy)-propoxy)-3-bromobenzene acetic acid], the 50% effective dose (ED50) was found to be 10 mg/kg and the “% Inhibition After 30 Min.” value is 87%.
For `CCCc1c(OCCCOc2ccc(CC(=O)O)cc2F)ccc(C(C)=O)c1O` [Entry 4, 4-(3-(4-Acetyl-3-hydroxy-2-propylphenoxy)-propoxy)-3-fluorobenzene acetic acid], in that order: 10 mg/kg and 100%.
The corresponding values for `CCCc1c(OCC(O)COc2ccc(CC(=O)O)cc2Br)ccc(C(C)=O)c1O` (stereo not drawn) [Entry 6, 4-(3-(4-Acetyl-3-hydroxy-2-propylphenoxy)-2-hydroxypropoxy)-3-bromobenzene acetic acid] are 2.5 mg/kg and 35%.
For `CCCc1c(OCCCOc2cccc(CCC(=O)O)c2)ccc(C(C)=O)c1O` [Entry 2, reference compound], in that order: 10 mg/kg and 32%.
Consider `CCCc1c(OCC(O)COc2ccc(CC(=O)O)cc2F)ccc(C(C)=O)c1O` (stereo not drawn) [Entry 5, 4-(3-(4-Acetyl-3-hydroxy-2-propylphenoxy)-2-hydroxypropoxy)-3-fluorobenzeneacetic acid], for which the 50% effective dose (ED50) is 2.5 mg/kg and the “% Inhibition After 30 Min.” value is 50%.
As to `CCCc1c(OCCCOc2ccc(CC(=O)O)cc2Cl)ccc(C(C)=O)c1O` [Entry 8, 4-(3-(4-acetyl-3-hydroxy-2-propylphenoxy)propoxy)-3-chlorobenzene acetic], the 50% effective dose (ED50) worked out at 5 mg/kg and the “% Inhibition After 30 Min.” value was found to be 60%.
On to `CCCc1c(OCCCOc2ccc(C=CC(=O)O)cc2)ccc(C(C)=O)c1O` [Entry 3, reference compound], for which the ED50 was 20 mg/kg and the “% Inhibition After 30 Min.” value was found to be 56%.
The corresponding values for `CCCc1c(OCCCOc2ccc(C(=O)O)cc2)ccc(C(C)=O)c1O` [Entry 1, reference compound] are 10 mg/kg and 59%.
For `CCCc1c(OCC(O)COc2ccc(CC(=O)O)cc2Cl)ccc(C(C)=O)c1O` (stereo not drawn) [Entry 7, 4-(3-(4-Acetyl-3-hydroxy-2-propylphenoxy)-2-hydroxypropoxy)-3-chlorobenzeneacetic acid], in that order: 10 mg/kg and 63%.
